This note sets out measurements from patent US20230279025A1, “KRAS G12D INHIBITORS” (Mirati Therapeutics, Inc., priority 2020, published 2023).

pIC50: −log10 of the molar value.

For the assay, the target named is KRas G12D (Homo sapiens (Human), UniProt P01116, G12D). Description: KRas G12D Binding Assay (TR-FRET displacement of Cy5 labelled tracer). The note with it: GDP-loaded KRAS G12D (amino acids 1:169), 60 minute incubation at 22° C. As for the experimental part:
After a 60 minute incubation at 22° C., the reaction was measured using a PerkinElmer EnVision multimode plate reader via TR-FRET dual wavelength detection, and the percent of control (POC) calculated using a ratiometric emission factor. […] The POC values were fit to a 4-parameter logistic curve and the IC50 value was determined as the concentration where the curve crosses 50 POC.
ND stands for “not determined.”
In general terms: In TR-FRET formats the signal depends on donor and acceptor labels being close together.

Sequence of KRas G12D (P01116 other isoform, or with tags, fused parts or gaps G12D): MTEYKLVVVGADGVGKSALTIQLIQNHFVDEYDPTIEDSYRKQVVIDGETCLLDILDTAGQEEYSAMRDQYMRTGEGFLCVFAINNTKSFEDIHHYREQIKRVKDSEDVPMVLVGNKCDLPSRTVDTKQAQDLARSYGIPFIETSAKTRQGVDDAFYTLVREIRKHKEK

`CN1CCC(F)(COc2nc(N3C[C@H]4CC[C@@H](C3)N4)c3cnc(-c4cccc5cccc(Cl)c45)c(F)c3n2)CC1` [Example 398, 4-((1R,5S)-3,8-diazabicyclo[3.2.1]octan-3-yl)-7-(8-chloronaphthalen-1-yl)-8-fluoro-2-((4-fluoro-1-methylpiperidin-4-yl)methoxy)pyrido[4,3-d]pyrimidine]: the pIC50 (usually the negative decadic logarithm of the IC50, by convention in mol/L) is 6.23. The value for `O=C(O[C@@H]1CN2CCC[C@]2(COc2nc(N3C[C@H]4CC[C@@H](C3)N4)c3cnc(-c4cccc5cccc(Cl)c45)c(F)c3n2)C1)N1CCOCC1` [Example 436, (2S,7aR)-7a-(((4-((1R,5S)-3,8-diazabicyclo[3.2.1]octan-3-yl)-7-(8-chloronaphthalen-1-yl)-8-fluoropyrido[4,3-d]pyrimidin-2-yl)oxy)methyl)hexahydro-1H-pyrrolizin-2-yl morpholine-4-carboxylate] was 7.32; that for `Cc1ccc(O)cc1-c1ncc2c(N3C[C@H]4CC[C@@H](C3)N4)nc(OCC34CCCN3CCC4)nc2c1F` [Example 256, 3-(4-((1R,5S)-3,8-diazabicyclo[3.2.1]octan-3-yl)-8-fluoro-2-((hexahydro-1H-pyrrolizin-7a-yl)methoxy)pyrido[4,3-d]pyrimidin-7-yl)-4-methylphenol] was 7.88; that for `Fc1ccc2cccc(-c3ncc4c(N5CC6CCC(C5)N6)nc(OC[C@@]56CCCN5C[C@H](F)C6)nc4c3F)c2c1Cl` (racemic) [Example 336, 4-((1R,5S)-3,8-diazabicyclo[3.2.1]octan-3-yl)-7-(8-chloro-7-fluoronaphthalen-1-yl)-8-fluoro-2-((2-fluorotetrahydro-1H-pyrrolizin-7a(5H)-yl)methoxy)pyrido[4,3-d]pyrimidine (racemic, trans)] was 8.51.

`CC(C)(O)c1ccccc1-c1ncc2c(N3CC4CCC(C3)N4)nc(OC[C@@]34CCCN3C[C@H](F)C4)nc2c1F` (stereo in doubt) [Example 402, 2-(2-(4-((1R,5S)-3,8-diazabicyclo[3.2.1]octan-3-yl)-8-fluoro-2-((2-fluorotetrahydro-1H-pyrrolizin-7a(5H)-yl)methoxy)pyrido[4,3-d]pyrimidin-7-yl)phenyl)propan-2-ol]: the negative logarithm of the IC50 (pIC50) was 5.10. The value for `CN1CCC[C@H]1COc1nc(N2CC3CCC(C(N)=O)(C2)N3)c2cnc(-c3cc(O)cc4ccccc34)c(F)c2n1` (stereo partly drawn) [Example 159, 3-(8-fluoro-7-(3-hydroxynaphthalen-1-yl)-2-(((S)-1-methylpyrrolidin-2-yl)methoxy)pyrido[4,3-d]pyrimidin-4-yl)-3,8-diazabicyclo[3.2.1]octane-1-carboxamide bis(2,2,2-trifluoroacetate)] was 6.48. The result for `COc1nc(N2C[C@H]3CC[C@@H](C2)N3)c2cnc(-c3cc(O)cc4cccc(Cl)c34)c(F)c2n1` [Example 360, 4-(4-((1R,5S)-3,8-diazabicyclo[3.2.1]octan-3-yl)-8-fluoro-2-methoxypyrido[4,3-d]pyrimidin-7-yl)-5-chloronaphthalen-2-ol] reads 7.29. The value for `COc1ccccc1-c1ncc2c(N3C[C@H]4CC[C@@H](C3)N4)nc(OCC34CCCN3CCC4)nc2c1F` [Example 273, 4-((1R,5S)-3,8-diazabicyclo[3.2.1]octan-3-yl)-8-fluoro-2-((hexahydro-1H-pyrrolizin-7a-yl)methoxy)-7-(2-methoxyphenyl)pyrido[4,3-d]pyrimidine] was 5.87; that for `N#CC[C@@H]1C[C@@H]2CN(c3nc(OCC45CCCN4CCC5)nc4c(F)c(-c5cc(O)cc6ccccc56)ncc34)C[C@H]1N2` [Example 338, 2-((1R,5S,6S)-3-(8-fluoro-7-(3-hydroxynaphthalen-1-yl)-2-((tetrahydro-1H-pyrrolizin-7a(5H)-yl)methoxy)pyrido[4,3-d]pyrimidin-4-yl)-3,8-diazabicyclo[3.2.1]octan-6-yl)acetonitrile] was 7.48.
